# Experimental data as given in PMC10163738, “Switch from a ritonavir to a cobicistat containing antiretroviral regimen and impact on tacrolimus levels in a kidney transplant recipient” (Virology Journal, 2023).
# Like-named read-outs stand apart in the source and are kept apart here. Marks after values point to notes of the source that are not given here.
# What was measured:
# [1] = set-up: method as in PMID 25708713; conditions: co-administered with ritonavir; cited from earlier work
# [2] = Tacrolimus pharmacokinetic profiles and trough level monitoring before and after switch of booster from ritonavir to cobicistat in an HIV-infected kidney transplant recipient; assay type: in vivo, human; conditions: for AUC(0-t): read-out: AUC264h; for half-life: read-out: T1/2 (elimination half-life) (converted)
# From the text: Due to the high daily pill burden (i.e., 4 tablets mycophenolate mofetil, 10 tablets for the antiretroviral regimen, 7 pills for the treatment of cardiovascular risk factors, and 8 pills for additional indications), and with new combination antiretroviral pills available, a treatment simplification was envisaged. A feasible antiretroviral treatment considering the multi-drug resistant HIV virus was the combination of dolutegravir (INSTI), rilpivirine (NNRTI), maraviroc and the single tablet combination including emtricitabine, tenofovir alafenamide and darunavir boosted with cobicistat (darunavir/c). […] Due to the inducing properties of ritonavir, we predicted that a switch to cobicistat could result in higher tacrolimus concentrations. During three weeks before and three weeks after the switch we closely monitored tacrolimus drug levels (3 full pharmacokinetic profiles before and after changing the booster) to evaluate the effect on tacrolimus exposure (Figs. 1, 2).
# Fig. 1 Tacrolimus profiles during ritonavir-boosted and cobicistat-boosted antiretroviral regimens. Three 11 days pharmacokinetic tacrolimus concentrations profiles in blue while on the ritonavir-boosted regimen before the switch and in red while on the cobicistat-boosted regimen after the switch. *For practical reasons (weekend, holidays) tacrolimus trough levels were measured on day 9 at the end of the third pharmacokinetic profile and on day 10 at the end of the sixth pharmacokinetic profile
# Fig. 2 Antiretroviral treatment and tacrolimus trough levels before and after therapy switch. Blue bars indicate drugs before switch and blue dots tacrolimus levels before switch. Red bars indicate drugs after switch and red dots indicate tacrolimus trough levels after switch.
# [3] = renal transplant recipients in absence of strong inhibitors; cited from earlier work
# [4] = Tacrolimus pharmacokinetic profiles and trough level monitoring before and after switch of booster from ritonavir to cobicistat in an HIV-infected kidney transplant recipient; assay type: in vivo, human; conditions: co-administered with darunavir/ritonavir 800/100 mg once daily, 3rd pharmacokinetic profile, dosing interval 10 days for practical reasons
# [5] = human, plasma, oral, co-administered with darunavir/cobicistat 800/150 mg once daily, 1st pharmacokinetic profile
# [6] = human, plasma, oral, co-administered with darunavir/cobicistat 800/150 mg once daily, 2nd pharmacokinetic profile
# [7] = human, plasma, oral, co-administered with darunavir/cobicistat 800/150 mg once daily, 3rd pharmacokinetic profile
compound,measurement,setting,value
"C=CC[C@@H]1/C=C(\C)C[C@H](C)C[C@H](OC)[C@H]2O[C@@](O)(C(=O)C(=O)N3CCCC[C@H]3C(=O)O[C@H](/C(C)=C/[C@@H]3CC[C@@H](O)[C@H](OC)C3)[C@H](C)[C@@H](O)CC1=O)[C@H](C)C[C@@H]2OC [Tacrolimus, tacrolimus]",increase of tacrolimus elimination half-life,[1],sevenfold
same,increase of tacrolimus exposure,[1],57 fold
same,Tmax,"[2]; co-administered with darunavir/cobicistat 800/150 mg once daily, 1st pharmacokinetic profile",2 h
same,C0h (pre-dose plasma concentration),"[2]; co-administered with darunavir/cobicistat 800/150 mg once daily, 2nd pharmacokinetic profile, tacrolimus once every 11 days",4.1 µg/L
same,C0h (pre-dose plasma concentration),"[2]; co-administered with darunavir/cobicistat 800/150 mg once daily, 3rd (sixth overall) pharmacokinetic profile, dosing interval 10 days for practical reasons",4.0^a µg/L
same,C0h (pre-dose plasma concentration),"[2]; co-administered with darunavir/ritonavir 800/100 mg once daily, 1st pharmacokinetic profile, tacrolimus once every 11 days",7.3 µg/L
same,C0h (pre-dose plasma concentration),"[2]; co-administered with darunavir/ritonavir 800/100 mg once daily, 2nd pharmacokinetic profile, tacrolimus once every 11 days",6.1 µg/L
same,C0h (pre-dose plasma concentration),"[2]; darunavir/cobicistat 800/150 mg once daily section, 1st profile, trough at the day of the switch, i.e. last trough on darunavir/ritonavir, immediately before darunavir/cobicistat",6.8^b µg/L
same,tacrolimus trough level,"[2]; eleven months post pharmacokinetic booster switch (cobicistat-boosted regimen), dosing interval 11 days",2.1 µg/L
same,Cmax,"[2]; human, plasma, oral, 0.5 mg, co-administered with darunavir/ritonavir 800/100 mg once daily, 1st pharmacokinetic profile",15.1 ng/mL
same,Cmax,"[2]; human, plasma, oral, 0.5 mg, co-administered with darunavir/ritonavir 800/100 mg once daily, 2nd pharmacokinetic profile",17.7 ng/mL
same,Cmax,"[2]; human, plasma, oral, 0.5 mg, co-administered with darunavir/ritonavir 800/100 mg once daily, 3rd pharmacokinetic profile",17.6 ng/mL
same,Cmax,[2]; [5],11.7 ng/mL
same,AUC(0-t),"[2]; human, plasma, oral, co-administered with darunavir/cobicistat 800/150 mg once daily, 1st pharmacokinetic profile, dosing interval 11 days",1750 ng·h/mL
same,half-life,[2]; [5],226 h
same,Cmax,[2]; [6],13.7 ng/mL
same,AUC(0-t),"[2]; human, plasma, oral, co-administered with darunavir/cobicistat 800/150 mg once daily, 2nd pharmacokinetic profile, dosing interval 11 days",1870 ng·h/mL
same,half-life,[2]; [6],175 h
same,Tmax,"[2]; human, plasma, oral, co-administered with darunavir/cobicistat 800/150 mg once daily, 2nd pharmacokinetic profile, read-out: Tmax",8 h
same,Cmax,[2]; [7],12.6 ng/mL
same,half-life,[2]; [7],183 h
same,Tmax,"[2]; human, plasma, oral, co-administered with darunavir/cobicistat 800/150 mg once daily, 3rd pharmacokinetic profile, read-out: Tmax",4 h
same,AUC(0-t),"[2]; human, plasma, oral, co-administered with darunavir/ritonavir 800/100 mg once daily, 1st pharmacokinetic profile, dosing interval 11 days",2650 ng·h/mL
same,half-life,"[2]; human, plasma, oral, co-administered with darunavir/ritonavir 800/100 mg once daily, 1st pharmacokinetic profile",227 h
same,Tmax,"[2]; human, plasma, oral, co-administered with darunavir/ritonavir 800/100 mg once daily, 1st pharmacokinetic profile, read-out: Tmax",8 h
same,AUC(0-t),"[2]; human, plasma, oral, co-administered with darunavir/ritonavir 800/100 mg once daily, 2nd pharmacokinetic profile, dosing interval 11 days",2380 ng·h/mL
same,half-life,"[2]; human, plasma, oral, co-administered with darunavir/ritonavir 800/100 mg once daily, 2nd pharmacokinetic profile",275 h
same,Tmax,"[2]; human, plasma, oral, co-administered with darunavir/ritonavir 800/100 mg once daily, 2nd pharmacokinetic profile, read-out: Tmax",4 h
same,half-life,"[2]; human, plasma, oral, co-administered with darunavir/ritonavir 800/100 mg once daily, 3rd pharmacokinetic profile",266 h
same,Tmax,"[2]; human, plasma, oral, co-administered with darunavir/ritonavir 800/100 mg once daily, 3rd pharmacokinetic profile, read-out: Tmax",4 h
same,AUC(0-t),"[2]; human, plasma, oral, co-administered with darunavir/cobicistat 800/150 mg once daily, 3rd (sixth overall) pharmacokinetic profile, dosing interval 10 days for practical reasons",1240 ng·h/mL
same,CL/F,[3],6.7 L/h
same,T1/2,[3],15.6 h
same,C0h (pre-dose plasma concentration),[4],6.2^a µg/L
same,AUC(0-t),"[4]; human, plasma, oral, read-out: AUC264h",2350 ng·h/mL
